Data: patent US10300026B2, “Use of dihydroxyacetone in preparation of anti-cancer medicaments” (priority 2015, dated 2019)

Assays:
HepG2 = test: CellTiter-Glo cell viability, HepG2 (human hepatoma cell line); type: cell-based; conditions: Homo sapiens, HepG2, 72 h, read-out: IC50 calculated based on the concentration of dihydroxyacetone
Method: (§1) 15 g of the commercially available 1,3-dihydroxyacetone in the solid powder form was added into 100 mL of 5% glucose (infusion bottle), then filled into 100 bottles.
(§2) After digesting the cells and counting (counting suspended cells directly), the cells were diluted to 1.25×10^5 cells/ml, inoculated into a 384-well plate (5000 cells/well) with 40 μl per well, centrifuged at 1500 rpm for 1 min, placed into the incubator and incubated overnight.
(§3) The medicaments were diluted in gradient with a 5% glucose solution to 5×, respectively. Each well was dosed with 10 μl medicament, with 4 wells (n=4) for each concentration. The cell viability was measured with Luminescence Cell Viability Assay kit after incubating for 72 hours in an incubator.
(§4) CellTiter-Glo reagent was added into each well, the volume of which is the same as that of medium. It was shaked on a shaker for 5 min, centrifuged at 1500 rpm for 1 min, and incubated in the dark at room temperature for 15 min. Then the chemiluminescence was detected with BMG PHERAstar.
(§5) The cell viability was calculated by using the following formula: Cell viability (Viability %)=100%×(LUMsample to be measured−LUMblank)/(LUMsolvent control−LUMblank)
(§6) The curve of Log[concentration] versus cell viability was fitted using Prism 6 to calculate IC50 of sample for each cell line.

Caki-1 = test: CellTiter-Glo cell viability, Caki-1 (human renal clear cell carcinoma skin metastatic cell); type: cell-based; conditions: Homo sapiens, CAKI-1, 72 h, read-out: IC50 calculated based on the concentration of dihydroxyacetone
Method: as §1, §2, §3, §4, §5, §6

A431 = test: CellTiter-Glo cell viability, A431 (human cutaneous squamous cell carcinoma); type: cell-based; conditions: Homo sapiens, A-431, 72 h, read-out: IC50 calculated based on the concentration of dihydroxyacetone
Method: as §1, §2, §3, §4, §5, §6

WIL2-S = test: CellTiter-Glo cell viability, WIL2-S (human B lymphocyte); type: cell-based; conditions: Homo sapiens, Lymphocyte, 72 h, read-out: IC50 calculated based on the concentration of dihydroxyacetone
Method: as §1, §2, §3, §4, §5, §6

RPMI8226 = test: CellTiter-Glo cell viability, RPMI8226 (multiple myeloma); type: cell-based; conditions: Homo sapiens, RPMI-8226, 72 h, read-out: IC50 calculated based on the concentration of dihydroxyacetone
Method: as §1, §2, §3, §4, §5, §6

SH-SY5Y = test: CellTiter-Glo cell viability, SH-SY5Y (human neuroblastoma cell); type: cell-based; conditions: Homo sapiens, 72 h, read-out: IC50 calculated based on the concentration of dihydroxyacetone
Method: as §1, §2, §3, §4, §5, §6

Calu-6 = test: CellTiter-Glo cell viability, Calu-6 (human degenerative cancer cell); type: cell-based; conditions: Homo sapiens, Calu-6, 72 h, read-out: IC50 calculated based on the concentration of dihydroxyacetone
Method: as §1, §2, §3, §4, §5, §6

[1] = tested on: human large cell lung cancer H460 cell transplantation tumor; test: H460 cell transplantation tumor model in naked mice; type: in vivo, Balb/c-nude naked mice
Method: Naked mice were subcutaneously inoculated with H460 cells (human large cell lung cancer cell line). When tumors grew to about 100 mm^3, 36 naked mice with similar tumor volume and good shape were selected from 70 naked mice, divided into 6 groups with 6 animals in each group;
Cisplatin: 4 mg/kg, volume of injection was 0.1 mL/10 g, i.p, administration once every 5 days, three weeks in total;
Cisplatin group: 4 mg/kg, volume of injection was 0.1 mL/10 g, i.p, administration once every 5 days, three weeks in total;
Blank group: 0.9% sodium chloride injection, mode of administration was same as DHA group.
3.1.3 Naked mice were inoculated subcutaneously at the right side of back, 0.1 mL/mouse, i.e. each naked mouse was inoculated 2×10^6 cells;
3.2.1 When tumors grew to about 100 mm^3, 36 naked mice with similar tumor volume and good shape were selected from 70 naked mice, and divided into 6 groups with 6 animals in each group.
The mixture was refrigerated at 4° C. when not used. […] 4 mL of 0.6 mg/mL cisplatin solution were measured and added with 2.0 mL physiological saline to formulate a 0.4 mg/mL (4 mg/kg) cisplatin solution. The solution was refrigerated at 4° C. when not used.
The tumor volume and body weight were measured three times per week from the first day of administration. Naked mice were sacrificed on 22th day. The tumors were taken out, weighed and photographed. The tumor inhibition rate was calculated.
The calculation formula is: TV=½×a×b^2, where a and b represents length and width, respectively.
The calculation formula is: RTV=TVt/TV1, where TV1 is a tumor volume when being caged and administrated (i.e., d1), TVt is a tumor volume at each measurement.
The calculation formula is: […]
TRTV: RTV of treatment group; CRTV: RTV of blank control group.
TTW: tumor weight of treatment group; CTW: tumor weight of blank control group; TW: tumor weight.

C-33A = test: CellTiter-Glo cell viability, C-33A (human cervical cancer cell); type: cell-based; conditions: Homo sapiens, C-33-A, 72 h, read-out: IC50 calculated based on the concentration of dihydroxyacetone
Method: as §1, §2, §3, §4, §5, §6

KB = test: CellTiter-Glo cell viability, KB (human oral cancer cell line); type: cell-based; conditions: Homo sapiens, 72 h, read-out: IC50 calculated based on the concentration of dihydroxyacetone
Method: as §1, §2, §3, §4, §5, §6

BEL-7402 = test: CellTiter-Glo cell viability, BEL-7402 (human hepatoma cell line); type: cell-based; conditions: Homo sapiens, Bel-7402, 72 h, read-out: IC50 calculated based on the concentration of dihydroxyacetone
Method: as §1, §2, §3, §4, §5, §6

FaDu = test: CellTiter-Glo cell viability, FaDu (human pharyngeal squamous cell); type: cell-based; conditions: Homo sapiens, 72 h, read-out: IC50 calculated based on the concentration of dihydroxyacetone
Method: as §1, §2, §3, §4, §5, §6

SW620 = test: CellTiter-Glo cell viability, SW620 (human colon cancer cell); type: cell-based; conditions: Homo sapiens, SW-620, 72 h, read-out: IC50 calculated based on the concentration of dihydroxyacetone
Method: as §1, §2, §3, §4, §5, §6

SMMC-7721 = test: CellTiter-Glo cell viability, SMMC-7721 (human hepatoma cell line); type: cell-based; conditions: Homo sapiens, SMMC-7721, 72 h, read-out: IC50 calculated based on the concentration of dihydroxyacetone
Method: as §1, §2, §3, §4, §5, §6

A375 = test: CellTiter-Glo cell viability, A375 (human malignant melanoma cell); type: cell-based; conditions: Homo sapiens, A-375, 72 h, read-out: IC50 calculated based on the concentration of dihydroxyacetone
Method: as §1, §2, §3, §4, §5, §6

DU145 = test: CellTiter-Glo cell viability, DU145 (human prostate cancer cell); type: cell-based; conditions: Homo sapiens, DU-145, 72 h, read-out: IC50 calculated based on the concentration of dihydroxyacetone
Method: as §1, §2, §3, §4, §5, §6

PANC-1 = test: CellTiter-Glo cell viability, PANC-1 (human pancreatic cancer cell line); type: cell-based; conditions: Homo sapiens, PANC-1, 72 h, read-out: IC50 calculated based on the concentration of dihydroxyacetone
Method: as §1, §2, §3, §4, §5, §6

Jurkat = test: CellTiter-Glo cell viability, Jurkat (human T lymphoblastic leukemia cell); type: cell-based; conditions: Homo sapiens, 72 h, read-out: IC50 calculated based on the concentration of dihydroxyacetone
Method: as §1, §2, §3, §4, §5, §6

A2780 = test: CellTiter-Glo cell viability, A2780 (human ovarian cancer cell line); type: cell-based; conditions: Homo sapiens, A2780, 72 h, read-out: IC50 calculated based on the concentration of dihydroxyacetone
Method: as §1, §2, §3, §4, §5, §6

TT = test: CellTiter-Glo cell viability, TT (human thyroid cancer cell); type: cell-based; conditions: Homo sapiens, 72 hours, n=4, read-out: IC50 calculated based on the concentration of dihydroxyacetone
Method: as §1, §2, §3, §4, §5, §6

A673 = test: CellTiter-Glo cell viability, A673 (human rhabdomyoma cell); type: cell-based; conditions: Homo sapiens, A673, 72 h, read-out: IC50 calculated based on the concentration of dihydroxyacetone
Method: as §1, §2, §3, §4, §5, §6

U87MG = test: CellTiter-Glo cell viability, U87MG (human spongioblastoma cell line); type: cell-based; conditions: Homo sapiens, U-87 MG, 72 h, read-out: IC50 calculated based on the concentration of dihydroxyacetone
Method: as §1, §2, §3, §4, §5, §6

S180 = test: CellTiter-Glo cell viability, S180 (S180 sarcoma cells); type: cell-based; conditions: S-180, 72 h, read-out: IC50 calculated based on the concentration of dihydroxyacetone
Method: as §1, §2, §3, §4, §5, §6

[2] = D20, H460 tumor naked mice, cisplatin 4 mg/kg i.p. once every 5 days, DHA p.o. 0.1 mL/10 g bid

O=C(CO)CO [Dihydroxyacetone, 1,3-dihydroxyacetone]
IC50 (HepG2): 12.1 mM
IC50 (Caki-1): 10 mM
IC50 (A431): 5.64 mM
IC50 (WIL2-S): 12.1 mM
IC50 (RPMI8226): 1.81 mM
IC50 (SH-SY5Y): 1.81 mM
IC50 (Calu-6): 11 mM
TV (mm^3) D1 ([1]; D1 (first day of administration), H460 tumor naked mice): 90.47 ± 9.91 mm^3
Body weight (g) D1 ([1]; D1 (first day of administration), H460 tumor naked mice, cisplatin 4 mg/kg i.p. once every 5 days, DHA p.o. 0.1 mL/10 g bid): 21.4 ± 0.7 g
Body weight (g) D20 [1, 2]: 23.7 ± 1.3 g
TV (mm^3) D20 [1, 2]: 2300.4 ± 585.1 mm^3
RTV D20 (relative tumor volume) ([1]; D20, RTV=TVt/TV1, cisplatin 4 mg/kg i.p. once every 5 days, DHA p.o. 0.1 mL/10 g bid): 25.5 ± 6.2
Effect of tumor inhibition ([1]; H460 tumor naked mice, vs blank): did not exhibit a significant effect of tumor inhibition
T/C (%) relative tumor proliferation rate ([1]; final, vs blank control group RTV, cisplatin 4 mg/kg i.p. once every 5 days, DHA p.o. 0.1 mL/10 g bid): 142.0%
Toxic reaction ([1]; mouse, in vivo): no toxic reaction
Tumor Weight TW ([1]; tumors taken out at sacrifice on 22th day, cisplatin 4 mg/kg i.p. once every 5 days, DHA p.o. 0.1 mL/10 g bid): 1.76 ± 0.44 g
Tumor Weight Inhibition Rate IR (%) ([1]; vs blank control group tumor weight, cisplatin 4 mg/kg i.p. once every 5 days, DHA p.o. 0.1 mL/10 g bid): −50.6%
IC50 (C-33A): 5.09 mM
IC50 (KB): 7.51 mM
IC50 (BEL-7402): 6.82 mM
IC50 (FaDu): 9.42 mM
IC50 (SW620): 8.54 mM
IC50 (SMMC-7721): 5.09 mM
IC50 (A375): 6.18 mM
IC50 (DU145): 7.68 mM
IC50 (PANC-1): 7.36 mM
IC50 (Jurkat): 1.83 mM
IC50 (A2780): 10.6 mM
IC50 (TT): 3.62 mM
IC50 (A673): 3.77 mM
IC50 (U87MG): 9.21 mM
IC50 (S180): 0.95 mM
